Measurements as given in US20210369739A1, “COMBINATION THERAPY OF ACYLTHIOUREA COMPOUND AND ABIRATERONE” (TAIHO PHARMACEUTICAL CO., LTD., priority 2018, published 2021).

Columns and labels:
[1] = Combinational administration test: seriousness of side effects (CTCAE Ver. 4.03); type: in vivo, human; conditions: every dosage group; in combination with abiraterone acetate
Method: A methanesulfonate salt of compound I and abiraterone acetate were administered to patients of castration-resistant prostate cancer with bone metastasis as subjects, and the efficacy and side effects were evaluated. A schedule of administering the methanesulfonate salt of compound I in any of three doses in terms of the free form (200, 300, or 400 mg/body/day) to patients who were receiving secondary endocrine therapy before docetaxel treatment as subjects once a day for 5 days and taking a drug holiday of the compound I only for 2 days was repeated. During this period, 1000 mg of abiraterone acetate was administered to every dosage groups every day once a day, and six subjects were examined in each dosage group. […] In the side effects that determine this discontinuation of enrollment and evaluation, etc., abnormal clinical examination values, such as an increase in alanine aminotransferase (ALT), an increase in aspartate aminotransferase (AST), and an increase in blood creatine kinase (CK), are not included. […] Accordingly, since the number of cases for evaluation of each dosage group is small, i.e., 6 cases, from the viewpoint of the efficacy, side effects, and administration continuity, 6 cases at 300 mg/body/day were additionally evaluated. […]

[2] = test system: bone metastasis of castration-resistant prostate cancer; assay: Combinational administration test: bone scintigraphy, Bone Scan Index (BSI); type: in vivo, human; conditions: with 1000 mg abiraterone acetate once a day
Method: A methanesulfonate salt of compound I and abiraterone acetate were administered to patients of castration-resistant prostate cancer with bone metastasis as subjects, and the efficacy and side effects were evaluated. A schedule of administering the methanesulfonate salt of compound I in any of three doses in terms of the free form (200, 300, or 400 mg/body/day) to patients who were receiving secondary endocrine therapy before docetaxel treatment as subjects once a day for 5 days and taking a drug holiday of the compound I only for 2 days was repeated. During this period, 1000 mg of abiraterone acetate was administered to every dosage groups every day once a day, and six subjects were examined in each dosage group. […] In the side effects that determine this discontinuation of enrollment and evaluation, etc., abnormal clinical examination values, such as an increase in alanine aminotransferase (ALT), an increase in aspartate aminotransferase (AST), and an increase in blood creatine kinase (CK), are not included. […] Accordingly, since the number of cases for evaluation of each dosage group is small, i.e., 6 cases, from the viewpoint of the efficacy, side effects, and administration continuity, 6 cases at 300 mg/body/day were additionally evaluated.
Regarding the efficacy, bone scintigraphy to be used for detecting bone metastasis was implemented, and evaluation was performed based on Bone Scan Index (BSI) using analytical data by BONE NAVI and criteria of Response Evaluation Criteria in Solid Tumors (RECIST) guideline Version 1.1 or Prostate Cancer Clinical Trials Working Group 3 (PCWG3). […] The ANN value indicates the degree of confidence of metastasis on a scale from 0 to 1, and an ANN value exceeding 0.5 is assessed to have a risk of bone metastasis. In addition, in FIG. 1, the best value among BSI measured during the period of administration of the compound I is shown as Best response based on the bone metastasis on the day of starting the administration in each dosage group.

## CNC(=O)c1cc2c(Oc3ccc(NC(=S)NC(=O)Cc4ccccc4)cc3F)ccnc2cc1OC [compound I, 4-(2-fluoro-4-(3-(2-phenylacetyl)thioureido)phenoxy)-7-methoxy-N-methylquinoline-6-carboxamide]
[1]
  side effects: acceptable
[2]; 200 mg/body/day as free form, once a day for 5 days then 2-day holiday, CRPC patients with bone metastasis
  suppression of bone metastasis observed (BSI): two of six
[2]; 300 mg/body/day, among the 10 cases with suppression
  BSI value became 0: three
[2]; 400 mg/body/day as free form, bone metastasis not measurable in one of six cases
  suppression of bone metastasis observed (BSI): five of the remaining five
